According to the CombiSolv-Exp solvation set (Vermeire and Green 2021):

Test: solvent given as SMILES
[1] = in CCCCCCCCC=CCCCCCCCC(=O)OCC(COC(=O)CCCCCCCC=CCCCCCCCC)OC(=O)CCCCCCCC=CCCCCCCCC

SMILES: CCC
- solvation free energy, 298 K (in Brc1ccccc1): -1.43 kcal/mol
- solvation free energy, 298 K (in C1CCC2CCCCC2C1): -1.52 kcal/mol
- solvation free energy, 298 K (in C1COCCO1): -1.24 kcal/mol
- solvation free energy, 298 K (in CC1COC(=O)O1): -0.58 kcal/mol
- solvation free energy, 298 K (in CC(=O)N(C)C): -1.09 kcal/mol
- solvation free energy, 298 K (in CC(C)(C)O): -1.39 kcal/mol
- solvation free energy, 298 K (in CC(C)=O): -1.36 kcal/mol
- solvation free energy, 298 K (in CC(C)CCO): -1.33 kcal/mol
- solvation free energy, 298 K (in CC(C)CO): -1.32 kcal/mol
- solvation free energy, 298 K (in CC(C)O): -1.21 kcal/mol
- solvation free energy, 298 K (in CC(CC(C)(C)C)CC(C)(C)CC(C)(C)C): -2.21 kcal/mol
- solvation free energy, 298 K (in CCC(C)(C)O): -1.42 kcal/mol
- solvation free energy, 298 K (in CCC(C)CO): -1.32 kcal/mol
- solvation free energy, 298 K (in CCC(O)CC): -1.34 kcal/mol
- solvation free energy, 298 K (in CCCC(C)O): -1.34 kcal/mol
- solvation free energy, 298 K (in CCCCC): -1.81 kcal/mol
- solvation free energy, 298 K (in CCCCCC): -1.8 kcal/mol
- solvation free energy, 298 K (in CCCCCCC): -1.77 kcal/mol
- solvation free energy, 298 K (in CCCCCCCC): -1.74 kcal/mol
- solvation free energy, 298 K (in CCCCCCCCC): -1.71 kcal/mol
- solvation free energy, 298 K (in CCCCCCCCCC): -1.67 kcal/mol
- solvation free energy, 298 K (in CCCCCCCCCCCC): -1.54 kcal/mol
- solvation free energy, 298 K (in CCCCCCCCCCCCC): -1.54 kcal/mol
- solvation free energy, 298 K (in CCCCCCCCCCCCCC): -1.49 kcal/mol
- solvation free energy, 298 K (in CCCCCCCCCCCCCCC): -1.48 kcal/mol
- solvation free energy, 298 K (in CCCCCCCCCCCCCCCC): -1.42 kcal/mol
- solvation free energy, 298 K (in CCCCCCCCO): -1.28 kcal/mol
- solvation free energy, 298 K (in CCCCCCCO): -1.22 kcal/mol
- solvation free energy, 298 K (in CCCCCO): -1.32 kcal/mol
- solvation free energy, 298 K (in CCCCO): -1.35 kcal/mol
- solvation free energy, 298 K (in CCCO): -1.32 kcal/mol
- solvation free energy, 298 K (in CCO): -1.24 kcal/mol
- solvation free energy, 298 K (in CN1CCCC1=O): -0.89 kcal/mol
- solvation free energy, 298 K (in CN(C)C=O): -0.88 kcal/mol
- solvation free energy, 298 K (in CN(C)P(=O)(N(C)C)N(C)C): -1.15 kcal/mol
- solvation free energy, 298 K (in CO): -1.15 kcal/mol
- solvation free energy, 298 K (in COCCOCCO): -0.77 kcal/mol
- solvation free energy, 298 K (in COCCOCCOC): -1.24 kcal/mol
- solvation free energy, 298 K (in COCCOCCOCCOC): -0.95 kcal/mol
- solvation free energy, 298 K (in COCCOCCOCCOCCOC): -0.98 kcal/mol
- solvation free energy, 298 K (in CS(C)=O): -0.36 kcal/mol
- solvation free energy, 298 K (in Cc1ccc(C)cc1): -1.56 kcal/mol
- solvation free energy, 298 K (in Cc1cccc(C)c1): -1.62 kcal/mol
- solvation free energy, 298 K (in Cc1ccccc1C): -1.52 kcal/mol
- solvation free energy, 298 K (in ClC(Cl)(Cl)Cl): -1.83 kcal/mol
- solvation free energy, 298 K (in Clc1ccccc1): -1.61 kcal/mol
- solvation free energy, 298 K (in Ic1ccccc1): -1.51 kcal/mol
- solvation free energy, 298 K (in N#Cc1ccccc1): -1.11 kcal/mol
- solvation free energy, 298 K (in NC=O): 0.19 kcal/mol
- solvation free energy, 298 K (in Nc1ccccc1): -0.79 kcal/mol
- solvation free energy, 298 K (in O): 1.96 kcal/mol
- solvation free energy, 298 K (in OC1CCCCC1): -1.1 kcal/mol
- solvation free energy, 298 K (in OCCCOCCCO): -0.57 kcal/mol
- solvation free energy, 298 K (in OCc1ccccc1): -0.84 kcal/mol
- solvation free energy, 298 K (in c1ccccc1): -1.61 kcal/mol

SMILES: CCCCCC(=O)c1c(C)[nH]n(-c2ccccc2)c1=O
- solvation free energy, 298 K (in O): -9.26 kcal/mol

SMILES: C=C1CC=C(C(C)C)CC1
- solvation free energy, 298 K (in O): 0.05 kcal/mol

SMILES: c1ccc(N=Nc2ccccc2)cc1
- solvation free energy, 298 K [1]: -11.2 kcal/mol
- solvation free energy, 298 K (in O): -4.82 kcal/mol

SMILES: c1ccc2c(c1)OCCOCCOCCOc1ccccc1OCCOCCOCCO2
- solvation free energy, 298 K (in Cc1cccc(C)c1): -27.3 kcal/mol
- solvation free energy, 298 K (in O): -23.6 kcal/mol

SMILES: N#CCc1ccc(C(=O)O)cc1
- solvation free energy, 298 K (in C=CCCCCCCCCCCCCCC): -10.2 kcal/mol
- solvation free energy, 298 K (in O): -12.9 kcal/mol

SMILES: CCCC(=O)CC(=O)CC
- solvation free energy, 298 K (in O): -4.35 kcal/mol

SMILES: CCCc1ccccc1
- solvation free energy, 298 K (in C1CCOC1): -6.63 kcal/mol
- solvation free energy, 298 K (in CC#N): -5.61 kcal/mol
- solvation free energy, 298 K (in CC(C)CC(C)(C)C): -5.89 kcal/mol
- solvation free energy, 298 K (in CC(C)O): -5.41 kcal/mol
- solvation free energy, 298 K (in CCCCCC): -5.55 kcal/mol
- solvation free energy, 298 K (in CCCCCCC): -5.92 kcal/mol
- solvation free energy, 298 K (in CCCCCCCCCC): -5.23 kcal/mol
- solvation free energy, 298 K (in CCCCCCCCCCCCCCCC): -5.76 kcal/mol
- solvation free energy, 298 K (in CCCCCCCCO): -5.58 kcal/mol
- solvation free energy, 298 K (in CO): -5.31 kcal/mol
- solvation free energy, 298 K (in NC=O): -3.49 kcal/mol
- solvation free energy, 298 K (in O): -0.56 kcal/mol
- solvation free energy, 298 K (in OCCO): -3.65 kcal/mol
- solvation free energy, 298 K (in OCCOCCO): -4.55 kcal/mol
- solvation free energy, 298 K (in OCCOCCOCCO): -4.69 kcal/mol

SMILES: O=C(O)CCCC(=O)O
- solvation free energy, 298 K (in O): -12.7 kcal/mol
- solvation free energy, 298 K (in O=C1CCCCC1): -12.1 kcal/mol

SMILES: Cc1ccc(CO)cc1
- solvation free energy, 298 K (in O): -7.12 kcal/mol

SMILES: O=[N+]([O-])c1ccc(O)cc1
- solvation free energy, 298 K (in CCCCCC): -7.93 kcal/mol
- solvation free energy, 298 K (in CCCCCCC): -7.93 kcal/mol
- solvation free energy, 298 K (in CCCCCCCC): -7.93 kcal/mol
- solvation free energy, 298 K (in CCCCCCCCCC): -7.93 kcal/mol
- solvation free energy, 298 K (in CCCCOCCCC): -11.8 kcal/mol
- solvation free energy, 298 K (in O): -10.7 kcal/mol

SMILES: CCC(=O)CC(=O)CC
- solvation free energy, 298 K (in O): -4.71 kcal/mol

SMILES: CC1=C2CC3CCC(C)C2(CC1)C3(C)C (stereo unspecified)
- solvation free energy, 298 K (in O): 0.78 kcal/mol

SMILES: CC1CCC2=C1CC1CCC2(C)C1(C)C (stereo unspecified)
- solvation free energy, 298 K (in O): 0.78 kcal/mol

SMILES: C=CCC=C
- solvation free energy, 298 K (in CN(C)C=O): -2.62 kcal/mol
- solvation free energy, 298 K (in O): 0.94 kcal/mol

SMILES: Nc1ccc(N)c2c1C(=O)c1ccccc1C2=O
- solvation free energy, 298 K (in O): -11.8 kcal/mol

SMILES: CCCC[N+](=O)[O-]
- solvation free energy, 298 K (in CCCCCC): -4.64 kcal/mol
- solvation free energy, 298 K (in O): -3.1 kcal/mol

SMILES: CCC(=O)CC(C)=O
- solvation free energy, 298 K (in O): -4.79 kcal/mol

SMILES: O=[N+]([O-])c1cccc(Cl)c1
- solvation free energy, 298 K (in O): -4.45 kcal/mol

SMILES: CC(C)CCO
- solvation free energy, 298 K (in Brc1ccccc1): -5.27 kcal/mol
- solvation free energy, 298 K (in C1CCOC1): -6.32 kcal/mol
- solvation free energy, 298 K (in CC#N): -5.58 kcal/mol
- solvation free energy, 298 K (in CC(C)O): -6.51 kcal/mol
- solvation free energy, 298 K (in CCCCCC): -4.05 kcal/mol
- solvation free energy, 298 K (in CCCCCCC): -3.96 kcal/mol
- solvation free energy, 298 K (in CCCCCCCC): -3.98 kcal/mol
- solvation free energy, 298 K (in CCCCCCCCCCO): -6.18 kcal/mol
- solvation free energy, 298 K (in CCCCCCCCO): -6.08 kcal/mol
- solvation free energy, 298 K (in CCCCOC(C)=O): -5.78 kcal/mol
- solvation free energy, 298 K (in CO): -6.77 kcal/mol
- solvation free energy, 298 K (in Cc1ccc(C)cc1): -4.93 kcal/mol
- solvation free energy, 298 K (in Cc1cccc(C)c1): -4.93 kcal/mol
- solvation free energy, 298 K (in Cc1ccccc1C): -4.94 kcal/mol
- solvation free energy, 298 K (in Clc1ccccc1): -5.13 kcal/mol
- solvation free energy, 298 K (in O): -4.41 kcal/mol
- solvation free energy, 298 K (in [2H]O[2H]): -4.43 kcal/mol

SMILES: CCCCCCCCCCCCCCO
- solvation free energy, 298 K (in CC(C)O): -12.3 kcal/mol
- solvation free energy, 298 K (in CCC(C)=O): -12.6 kcal/mol
- solvation free energy, 298 K [1]: -9.9 kcal/mol
- solvation free energy, 298 K (in CCCCCCCCCCO): -12.1 kcal/mol
- solvation free energy, 298 K (in CCCCCCO): -12.2 kcal/mol
- solvation free energy, 298 K (in O): -3.08 kcal/mol

SMILES: CC(C)CCCC(C)C1CCC2C3CC=C4CC(O)CCC4(C)C3CCC12C (stereo unspecified)
- solvation free energy, 298 K (in O): -5.93 kcal/mol

SMILES: O=C(c1ccccc1)C(O)c1ccccc1 (stereo unspecified)
- solvation free energy, 298 K (in C1COCCO1): -16.5 kcal/mol
- solvation free energy, 298 K (in CC(C)(C)O): -14.6 kcal/mol
- solvation free energy, 298 K (in CC(C)CCO): -14.6 kcal/mol
- solvation free energy, 298 K (in CC(C)CO): -14.6 kcal/mol
- solvation free energy, 298 K (in CC(C)O): -14.6 kcal/mol
- solvation free energy, 298 K (in CCC(C)O): -14.6 kcal/mol
- solvation free energy, 298 K (in CCCC(C)O): -14.5 kcal/mol
- solvation free energy, 298 K (in CCCCCCCCCCO): -14.5 kcal/mol
- solvation free energy, 298 K (in CCCCCCCCO): -14.6 kcal/mol
- solvation free energy, 298 K (in CCCCCCCO): -14.6 kcal/mol
- solvation free energy, 298 K (in CCCCCCO): -14.6 kcal/mol
- solvation free energy, 298 K (in CCCCCO): -14.7 kcal/mol
- solvation free energy, 298 K (in CCCCO): -14.7 kcal/mol
- solvation free energy, 298 K (in CCCCOC(C)=O): -15.4 kcal/mol
- solvation free energy, 298 K (in CCCCOCCCC): -14.2 kcal/mol
- solvation free energy, 298 K (in CCCO): -14.9 kcal/mol
- solvation free energy, 298 K (in CCO): -15 kcal/mol
- solvation free energy, 298 K (in CCOC(C)=O): -15.7 kcal/mol
- solvation free energy, 298 K (in CCc1ccccc1): -14.9 kcal/mol
- solvation free energy, 298 K (in COC(C)(C)C): -14.8 kcal/mol
- solvation free energy, 298 K (in COC(C)=O): -15.9 kcal/mol
- solvation free energy, 298 K (in Cc1ccc(C)cc1): -15 kcal/mol
- solvation free energy, 298 K (in Cc1ccccc1): -15.2 kcal/mol
- solvation free energy, 298 K (in Cc1ccccc1C): -15.1 kcal/mol
- solvation free energy, 298 K (in ClC(Cl)(Cl)Cl): -14.4 kcal/mol
- solvation free energy, 298 K (in ClC(Cl)Cl): -16.2 kcal/mol
- solvation free energy, 298 K (in ClCCCl): -16.1 kcal/mol
- solvation free energy, 298 K (in O): -11.9 kcal/mol
- solvation free energy, 298 K (in c1ccccc1): -15.6 kcal/mol

SMILES: CC(C)COCC(C)C
- solvation free energy, 298 K (in CCCCCCCCCCCCCCCC): -4.72 kcal/mol
- solvation free energy, 298 K (in CCCCCCCCO): -4.62 kcal/mol

SMILES: C=C(C)C1CCC2=CCCC(C)C2(C)C1 (stereo unspecified)
- solvation free energy, 298 K (in O): -0.15 kcal/mol

SMILES: Cc1cc(O)ccc1[N+](=O)[O-]
- solvation free energy, 298 K (in CCCCOCCCC): -12.1 kcal/mol
- solvation free energy, 298 K (in O): -9.89 kcal/mol
